Experimental findings from patent US9296723B2, “NAMPT inhibitors” (AbbVie Inc., priority 2012, dated 2016) are described below.

One experiment relates to PC3 cells. The experiment in a line: NAMPT Cell Proliferation Assay (Cell Titer Glo). The experiment is classed as cell-based. The settings on record: Homo sapiens, PC-3, 120 h, incubated 5 days, cell viability. An outline of the steps:
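Viability measured by Cell Titer Glo luminescence after 5-day exposure of attached PC3 cells to compound, dosed as 10-fold serial dilutions ([…]) in RPMI/10% FBS at 37 °C and 5% CO2. Percent inhibition fitted to sigmoidal dose-response curves for IC50.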

For experiment [1], the target named is T1, NAMPT (Homo sapiens, UniProt P43490). The experiment in a line: TR-FRET Binding Assay of NAMPT with PRPP. The settings on record: 2 nM NAMPT, 2 nM probe, 200 µM PRPP and 2.5 mM ATP, equilibrated 16 hours. An outline of the steps:
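Substrates present: PRPP at 200 µM and ATP at 2.5 mM, final, alongside 2 nM enzyme, 2 nM tracer and 1 nM terbium anti-His donor in 2% DMSO. A 16-hour equilibration preceded the time-resolved FRET read, allowing compounds to be enzymatically modified.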
For orientation: In TR-FRET formats the signal depends on donor and acceptor labels being close together.

The target in experiment [2] is T1, NAMPT. As to the kind of experiment: Time-Resolved Fluorescence Resonance Energy Transfer (TR-FRET) Binding Assay of NAMPT. The note with it: 6.8 nM NAMPT, 200 nM probe, equilibrated 3 hours, no substrates. The method, boiled down:
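IC50s come from four-parameter logistic fits of control-normalized Em520/Em495 TR-FRET ratios (Ex 337 nm) against compound concentration. Before reading, enzyme, probe, antibody and compound equilibrated for 3 h at room temperature.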

T1 sequence (P43490 whole entry): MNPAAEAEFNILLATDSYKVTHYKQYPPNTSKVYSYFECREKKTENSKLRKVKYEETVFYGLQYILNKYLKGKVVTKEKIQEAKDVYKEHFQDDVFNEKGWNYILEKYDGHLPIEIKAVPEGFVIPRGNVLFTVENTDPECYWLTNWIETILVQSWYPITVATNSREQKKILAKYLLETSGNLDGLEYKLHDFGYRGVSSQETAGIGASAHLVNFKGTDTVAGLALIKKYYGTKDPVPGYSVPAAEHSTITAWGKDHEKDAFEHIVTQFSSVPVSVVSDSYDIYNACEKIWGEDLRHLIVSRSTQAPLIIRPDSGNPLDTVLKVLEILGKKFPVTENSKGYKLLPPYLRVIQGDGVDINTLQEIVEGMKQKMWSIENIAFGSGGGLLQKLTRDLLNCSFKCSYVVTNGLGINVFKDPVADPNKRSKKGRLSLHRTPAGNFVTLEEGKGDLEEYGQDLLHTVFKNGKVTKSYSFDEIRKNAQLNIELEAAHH

As a reminder, the IC50 is the concentration needed to halve the response being measured. A high value points to weaker potency in that assay. For `CC(C)(C)OC(=O)N1CCC(CCCCNC(=O)N2CC(c3cccnc3)C2)CC1` [Example 15, tert-butyl 4-[4-({[3-(pyridin-3-yl)azetidin-1-yl]carbonyl}amino)butyl]piperidine-1-carboxylate], the results for the IC50 in the experiment with PC3 cells, at NAMPT [1] and at NAMPT [2] were 99.9 nM, 0.917 nM and 307 nM, respectively.

Turning to `Cn1cccc1C(=O)N1CCC(c2ccc(NC(=O)N3CC(c4cccnc4)C3)cc2)CC1` [Example 191, N-(4-{1-[(1-methyl-1H-pyrrol-2-yl)carbonyl]piperidin-4-yl}phenyl)-3-(pyridin-3-yl)azetidine-1-carboxamide], the results for the IC50 in the experiment on PC3 cells, at NAMPT [1] and at NAMPT [2] were 7.46 nM, 0.291 nM and 4.27 nM, respectively.

Regarding `O=C(Nc1ccc(C2CCN(C(=O)c3ccsc3)C2)cc1)N1CC(c2cccnc2)C1` (stereo not drawn) [Example 268, 3-(pyridin-3-yl)-N-{4-[1-(thiophen-3-ylcarbonyl)pyrrolidin-3-yl]phenyl}azetidine-1-carboxamide], the IC50 with PC3 cells was determined as 22.8 nM; on NAMPT [1] it was 0.225 nM; on NAMPT [2], 36.5 nM.

`CCCCC(=O)N1CC[C@@H](Oc2ccc(NC(=O)N3CC(c4cccnc4)C3)cc2)C1` [Example 297, N-(4-{[(3R)-1-pentanoylpyrrolidin-3-yl]oxy}phenyl)-3-(pyridin-3-yl)azetidine-1-carboxamide]: the results for the concentration for half-maximal inhibition (IC50) in the experiment with PC3 cells, at NAMPT [1] and on NAMPT [2] were 18.2 nM, 0.236 nM and 56.6 nM, respectively.

`CCC(C)(C)C(=O)N1CC(c2ccc(NC(=O)N3CC(c4cccnc4)C3)cc2)C1` [Example 204, N-{4-[1-(2,2-dimethylbutanoyl)azetidin-3-yl]phenyl}-3-(pyridin-3-yl)azetidine-1-carboxamide]: the IC50 came to 60.4 nM in the experiment on PC3 cells, 0.349 nM at NAMPT [1] and 48.6 nM at NAMPT [2].

Consider `CCOCCC(=O)N1CCC(c2ccc(NC(=O)N3CC(c4cccnc4)C3)cc2)CC1` [Example 168, N-{4-[1-(3-ethoxypropanoyl)piperidin-4-yl]phenyl}-3-(pyridin-3-yl)azetidine-1-carboxamide], for which the half-inhibitory concentration (IC50) in the experiment on PC3 cells is 45 nM; at NAMPT [1], 0.503 nM; at NAMPT [2], 28.9 nM.

Turning to `CC(C)CC(=O)N1CC(Oc2ccc(NC(=O)N3CC(c4cccnc4)C3)cc2)C1` [Example 132, N-(4-{[1-(3-methylbutanoyl)azetidin-3-yl]oxy}phenyl)-3-(pyridin-3-yl)azetidine-1-carboxamide], the results for the concentration for half-maximal inhibition (IC50) in the experiment with PC3 cells, on NAMPT [1] and at NAMPT [2] were 7.77 nM, 0.634 nM and 19.1 nM, respectively.

With `N#Cc1ccc(NC(=O)N2CC(c3cccnc3)C2)cc1` [Example 14, N-(4-cyanophenyl)-3-(pyridin-3-yl)azetidine-1-carboxamide], the IC50 with PC3 cells came out at 6680 nM; at NAMPT [1], 0.178 nM; at NAMPT [2], 879 nM.

Regarding `CC(C)(O)C(=O)N1CC(Oc2ccc(NC(=O)N3CC(c4cccnc4)C3)cc2)C1` [Example 30, N-(4-{[1-(2-hydroxy-2-methylpropanoyl)azetidin-3-yl]oxy}phenyl)-3-(pyridin-3-yl)azetidine-1-carboxamide], the IC50 stood at 125 nM with PC3 cells, 0.255 nM on NAMPT [1] and 69.4 nM at NAMPT [2].

As to `O=C(CC(F)(F)F)N1CCC(Oc2ccc(NC(=O)N3CC(c4cccnc4)C3)cc2)CC1` [Example 6, 3-(pyridin-3-yl)-N-(4-{[1-(3,3,3-trifluoropropanoyl)piperidin-4-yl]oxy}phenyl)azetidine-1-carboxamide], the IC50 in the experiment on PC3 cells came out at 30.6 nM; on NAMPT [1], 0.224 nM; on NAMPT [2] it was 53.4 nM.

Turning to `CC1CC1C(=O)N1CC[C@@H](Oc2ccc(NC(=O)N3CC(c4cccnc4)C3)cc2)C1` (stereo partly drawn) [Example 301, N-[4-({(3R)-1-[(2-methylcyclopropyl)carbonyl]pyrrolidin-3-yl}oxy)phenyl]-3-(pyridin-3-yl)azetidine-1-carboxamide], the IC50 in the experiment on PC3 cells came out at 21.9 nM; at NAMPT [1] it was 0.243 nM; on NAMPT [2], 59 nM.
